Laboratory results published in patent US10981932B2, “Macrocyclic indole derivatives” (Bayer Aktiengesellschaft, priority 2016, dated 2021).
Several values for one entry are separate records, joined by “and”; a condition that tells them apart may be missing. Equal entries are not always repeated. Structures can show the parent of a compound that is named as a salt. Where two headings read alike, the source gives them in different places.

Experiments:
A2780 = experiment: Anti-proliferative effect (CellTiter-Glo, 72 h), A2780; assay type: cell-based; details: A2780 cells, median, read-out: IC50 antiproliferation assay A2780 [M] (median)
How it was run: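 A time zero plate, read with CellTiter-Glo shortly after seeding, served as baseline; compound-treated plates were incubated 72 h at 37 °C and then read identically by luminescence.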

BCL-XL = target: T1, BCL-XL (Homo sapiens, UniProt Q07817); experiment: Protein-protein interaction assay BCL-XL/Bad BH3 peptide (BCL-XL assay), TR-FRET; assay type: binding; details: His-BCL-XL / Bad BH3-derived peptide
T1 construct: BCL-XL (amino acids 1-212, C-terminal fused to a hexahistidine (6×His) tag); purchased BPS Bioscience (San Diego, Calif., USA); host or cells: E. coli
Method: Protein-Protein Interaction Assay: BCL-XL/Bad BH3 Peptide (BCL-XL Assay)
The dose-dependent inhibition by the compounds described in this invention of the interaction between […] and the BH3 domain of Bad (both human) was determined using a steady state binding competition assay with time-resolved fluorescence energy transfer (TR-FRET) readout. For that purpose BCL-2 (amino acids 1-211, C-terminal fused to a hexahistidine (6×His) tag (SEQ ID NO: 3) and a synthetic Bad BH3-derived peptide of sequence Biotin-PEG2-PEG2-NLWAAQRYGRELRR-NIe-SDEFVDSFKK-amide (SEQ ID NO: 2) served as protein receptor and tracer ligand respectively. The recombinant BCL-2 protein (expressed in E. coli) was purchased from BPS Bioscience (San Diego, Calif., USA). The Bad BH3-derived peptide can be obtained from e.g. Biosyntan (Berlin, Germany).
In the assay 11 different concentrations of each compound (0.1 nM, 0.33 nM, 1.1 nM, 3.8 nM, 13 nM, 44 nM, 0.15 μM, 0.51 μM, 1.7 μM, 5.9 μM and 20 μM) were typically measured as duplicates in the same microtiter plate. For that, 100-fold concentrated DMSO solutions were prepared by serial dilutions (1:3.4) of a 2 mM stock solution in a clear, 384-well microtiter plate (Greiner Bio-One, Frickenhausen, Germany). From there, 50 nl were transferred in a dark test plate (Greiner Bio-One. Frickenhausen, Germany). The assay was initiated by addition of 2 μl of a 2,5-fold concentrated Hs-BCL-XL solution (usually for a 1 nM end concentration in 5 μl reaction volume) in aqueous assay buffer [50 mM Tris/HCl pH 7, 100 mM sodium chloride (NaCl), 50 mM potassium fluoride (KF), 0.005% Tween-20, 2 mM DTT, 0.1% bovine gamma globulin (BGG)] to the compounds in the assay plate. This was followed by a 10-minute incubation step at 22° C. for pre-equilibration of the putative complex between His-BCL-XL and the compounds.
The mixture was incubated in the dark for one hour at 22° C. and then overnight at 4° C. The formation of BCL-XL/Bad complexes was determined by measuring the resonance energy transfer of the anti-His- Eu-cryptate antibody to the streptavidin-XL665 present in the reaction. For that purpose, the fluorescence emission at 620 nm and 665 nm after excitation at 330-350 nm was measured in a TR-FRET measuring instrument, for instance a Rubystar or a Pherastar (both from BMG Lab Technologies, Offenburg, Germany) or a Viewlux (Perkin-Elmer). The ratio of the emission at 665 nm and at 622 nm was used as indicator of the amount of BCL-XL/Bad complexes present.
The resulting data (ratio) were normalized, taking 0% inhibition as the mean value of control measurements (usually 32 data points) where all reagents were included. In this case 50 nl DMSO were used instead of compounds. A 100% inhibition corresponded to the mean value of control measurements (usually 32 data points) where all reagents except BCL-XL were included. IC50 values were determined by regression analysis based on a 4 parameter equation (minimum, maximum, IC50, Hill; Y=Max+(Min−Max)/(1+(X/IC50)^Hill) using the Screener Software (Genedata).

SUDHL5 = experiment: Induction of cytotoxicity (CellTiter-Glo, 5 h), SUDHL5; details: read-out: Cytotox SUDHL5 [M] (median); SUDHL5 cells, cytotoxicity induction, CellTiter-Glo, 5 h incubation, median

T1 sequence (Q07817 1-212): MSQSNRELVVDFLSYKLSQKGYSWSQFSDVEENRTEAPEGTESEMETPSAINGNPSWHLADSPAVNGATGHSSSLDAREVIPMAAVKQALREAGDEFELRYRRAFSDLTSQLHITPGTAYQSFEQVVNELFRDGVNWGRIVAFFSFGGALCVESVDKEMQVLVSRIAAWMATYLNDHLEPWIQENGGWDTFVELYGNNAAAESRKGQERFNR

IC50 (A2780; Homo sapiens, A2780, 72 h) [M]	IC50 (BCL-XL) [µM]	IC50 (A2780)	SMILES	IC50 (SUDHL5) [M]
1.72e-05	> 20		CCc1c2c(nn1C)COCCCCn1c(C(=O)O)c(CCCOc3cccc4ccccc34)c3ccc(C)c-2c31 (single isomer, unassigned; enantiomer 1) [Example 154, 3-Ethyl-2,4-dimethyl-7-[3-(1-naphthyloxy)propyl]-2,10,11,12,13,15-hexahydropyrazolo[4′,3′:9,10][1,6]oxazacycloundecino[8,7,6-hi]indole-8-carboxylic acid-N-ethylethanamine Salt (Enantiomer 1)]	1.08e-06
	> 20	1.19e-05 M	Cn1nc(COc2ccc(N3CCN(S(C)(=O)=O)CC3)cc2)c2c1COCCCCn1c(C(=O)O)c(CCCOc3cccc4ccccc34)c3cccc-2c31 (single isomer, unassigned; enantiomer 2) [Example 1-10, 1-methyl-3-({4-[4-(methylsulfonyl)piperazin-1-yl]phenoxy}methyl)-7-[3-(naphthalen-1-yloxy)propyl]-1,10,11,12,13,15-hexahydropyrazolo[4′,3′:9,10][1,6]oxazacycloundecino[8,7,6-hi]indole-8-carboxylic acid (enantiomer 2)]	4.33e-07
	> 20	7.74e-06 M	Cn1nc(COc2ccc(N3CCN(S(=O)(=O)C4CC4)CC3)cc2)c2c1COCCCCn1c(C(=O)O)c(CCCOc3cccc4ccccc34)c3cccc-2c31 (single isomer, unassigned; enantiomer 2) [Example 1-13, 3-({4-[4-(cyclopropylsulfonyl)piperazin-1-yl]phenoxy}methyl)-1-methyl-7-[3-(naphthalen-1-yloxy)propyl]-1,10,11,12,13,15-hexahydropyrazolo[4′,3′:9,10][1,6]oxazacycloundecino[8,7,6-hi]indole-8-carboxylic Acid (Enantiomer 2)]	4.1e-07
	> 20	2e-05 M and > 3.3e-05 M	Cc1nn(C)c2c1-c1cccc3c(CCCOc4ccc(F)c5ccccc45)c(C(=O)O)n(c13)CCCCOC2 (single isomer, unassigned; enantiomer 2) [Example 023, 7-{3-[(4-fluoronaphthalen-1-yl)oxy]propyl}-1,3-dimethyl-1,10,11,12,13,15-hexahydropyrazolo[4′3′:9,10][1,6]oxazacycloundecino[8,7,6-hi]indole-8-carboxylic acid-N-ethylethanamine Salt (Enantiomer 2)]	1.84e-06
	> 20	1.14e-05 M	Cc1c2c(nn1CCN1CCOCC1)CN(C)CCCn1c(C(=O)O)c(CCCOc3cccc4ccccc34)c3cccc-2c31 (single isomer, unassigned; enantiomer 2) [Example 061, 7,11-dimethyl-10-[2-(morpholin-4-yl)ethyl]-1-[3-(naphthalen-1-yloxy)propyl]-4,5,6,7,8,10-hexahydropyrazolo[3′,4′:7,8][1,5]diazecino[9,10,1-hi]indole-2-carboxylic Acid (Enantiomer 2)]	1.63e-05
	> 20	1.3e-05 M	Cc1ccc2c(CCCOc3cccc4ccccc34)c(C(=O)O)n3c2c1-c1c(nn(C)c1C)CN(C)CCC3 (single isomer, unassigned; enantiomer 2) [Example 074, 7,10,11,12-tetramethyl-1-[3-(naphthalen-1-yloxy)propyl]-4,5,6,7,8,10-hexahydropyrazolo[3′,4′:7,8][1,5]diazecino[9,10,1-hi]indole-2-carboxylic Acid (Enantiomer 2)]	1.2e-05
